ChEMBL document CHEMBL3797140, “Acridin-3,6-dialkyldithiourea hydrochlorides as new photosensitizers for photodynamic therapy of mouse leukemia cells” (Bioorg Med Chem, 2016)
The source made the active and inactive calls. The rule behind the calls is not given here.

Experiments:
[1] = tested on: L1210; assay: Phototoxicity against mouse L1210 cells assessed as cell viability preincubated for 1 hr followed by 1.05 J/cm2 UV-A irradiation measured after 48 hrs by MTT assay in presence of pepstatin A; format: functional, cell-based
[2] = tested on: L1210; assay: Phototoxicity against mouse L1210 cells assessed as cell viability preincubated with 10 nM chloroquine followed by compound exposure for 1 hr followed by 1.05 J/cm2 UV-A irradiation measured after 48 hrs by MTT assay in presence of pepstatin A; format: functional, cell-based
[3] = tested on: L1210; assay: Induction of apoptosis in mouse L1210 cells assessed as decrease in Bcl2 level at 0.5 to 1 uM preincubated for 1 hr followed by 1.05 J/cm2 UV-A irradiation measured after 4 to 6 hrs by Western blot method; format: functional, cell-based
[4] = tested on: L1210; assay: Induction of apoptosis in mouse L1210 cells assessed as decrease in Bcl2 level at 0.5 uM preincubated for 1 hr measured after 8 hrs by Western blot method in absence of light; format: cell-based; conditions: l1210, 8 h
[5] = tested on: L1210; assay: Induction of cell cycle arrest in mouse L1210 cells assessed as accumulation at sub-G0 phase at 0.5 uM preincubated for 1 hr followed by 1.05 J/cm2 UV-A irradiation measured after 24 hrs by propidium iodide staining-based flow cytometry (reference value: 16.8 +/- 0.6%); format: functional
[6] = Cytotoxicity against human HL60/ADR cells after 48 hrs by MTT assay; format: functional, cell-based
[7] = tested on: L1210; assay: Phototoxicity against mouse L1210 cells assessed as cell viability preincubated for 1 hr followed by 1.05 J/cm2 UV-A irradiation measured after 48 hrs by MTT assay; format: functional, cell-based; conditions: L1210, light or radiation study
[8] = Octanol-water partition coefficient, logP of the compound; format: physicochemical
[9] = tested on: L1210; assay: Induction of cell cycle arrest in mouse L1210 cells assessed as accumulation at sub-G0 phase at 1 uM preincubated for 1 hr measured after 24 hrs by propidium iodide staining-based flow cytometry in absence of light (reference value: 16.6 +/- 0.4%); conditions: l1210, 24 h
[10] = tested on: L1210; assay: Induction of cell cycle arrest in mouse L1210 cells assessed as accumulation at G1 phase at 0.5 and 1 uM preincubated for 1 hr followed by 1.05 J/cm2 UV-A irradiation measured after 24 hrs by propidium iodide staining-based flow cytometry (reference value: 16.8 +/- 0.6%); format: functional
[11] = tested on: L1210; assay: Induction of apoptosis in mouse L1210 cells assessed as caspase 9 activation at 0.5 uM preincubated for 1 hr measured after 8 hrs by Western blot method in absence of light; format: cell-based; conditions: l1210, 8 h
[12] = tested on: L1210; assay: Induction of cell cycle arrest in mouse L1210 cells assessed as accumulation at sub-G0 phase at 0.5 uM preincubated for 1 hr measured after 4 hrs by propidium iodide staining-based flow cytometry in absence of light (reference value: 16.6 +/- 0.4%); conditions: l1210, 4 h
[13] = tested on: L1210; assay: Induction of apoptosis in mouse L1210 cells assessed as caspase 3 activation at 0.5 uM preincubated for 1 hr measured after 8 hrs by Western blot method in absence of light; format: cell-based; conditions: l1210, 8 h
[14] = tested on: L1210; assay: Induction of DNA fragmentation in mouse L1210 cells at 0.5 to 1 uM preincubated for 1 hr followed by 1.05 J/cm2 UV-A irradiation measured after 6 hrs by agarose gel electrophoresis; format: functional, cell-based
[15] = tested on: L1210; assay: Induction of apoptosis in mouse L1210 cells at 0.5 uM preincubated for 1 hr followed by 1.05 J/cm2 UV-A irradiation measured after 5 hrs by Annexin Red based flow cytometry; format: functional
[16] = tested on: L1210; assay: Induction of cytomorphological changes in mouse L1210 cells assessed as cell shrinkage at 0.5 uM preincubated for 1 hr followed by 1.05 J/cm2 UV-A irradiation measured after 6 to 24 hrs by Hoechst 33342 staining-based fluorescence microscopy; format: functional
[17] = tested on: L1210; assay: Phototoxicity against mouse L1210 cells assessed as cell viability preincubated for 1 hr followed by 1.05 J/cm2 UV-A irradiation measured after 48 hrs by MTT assay in presence of 3-methyladenine; format: functional, cell-based
[18] = tested on: L1210; assay: Induction of apoptosis in mouse L1210 cells assessed as Bax level at 0.5 to 1 uM preincubated for 1 hr followed by 1.05 J/cm2 UV-A irradiation measured after 4 to 6 hrs by Western blot method; format: functional, cell-based
[19] = Drug uptake in nucleus of mouse L1210 cells at 2 uM preincubated for 1 hr followed by 1.05 J/cm2 UV-A irradiation by SytoRed staining-based flow cytometry; format: ADME, cell-based; conditions: l1210, 2 µM
[20] = tested on: L1210; assay: Induction of cytomorphological changes in mouse L1210 cells at 0.5 uM preincubated for 1 hr measured after 6 to 24 hrs by Hoechst 33342 staining-based fluorescence microscopy in the absence of light; format: cell-based; conditions: l1210, 0.5 µM
[21] = tested on: L1210; assay: Induction of cell cycle arrest in mouse L1210 cells assessed as accumulation at sub-G0 phase at 1 uM preincubated for 1 hr measured after 4 hrs by propidium iodide staining-based flow cytometry in absence of light (reference value: 16.6 +/- 0.4%); conditions: l1210, 4 h
[22] = tested on: L1210; assay: Induction of cytomorphological changes in mouse L1210 cells assessed as condensed chromatin at 0.5 uM preincubated for 1 hr followed by 1.05 J/cm2 UV-A irradiation measured after 6 to 24 hrs by Hoechst 33342 staining-based fluorescence microscopy; format: functional, cell-based
[23] = Dark toxicity against mouse NIH/3T3 cells assessed as cell viability after 48 hrs by MTT assay; format: cell-based, NIH3T3
[24] = Induction of ROS generation measured 2 mins after UV-A irradiation by spin trapping agent DMPO based EPR spectroscopy; format: physicochemical
[25] = Drug uptake in plasma membrane of mouse L1210 cells at 1 uM after 1 to 6 hrs by fluorescence microscopy; format: ADME, cell-based; conditions: l1210, 1 µM
[26] = tested on: L1210; assay: Induction of autophagy in mouse L1210 cells assessed as accumulation of LC3BII at 0.5 uM preincubated for 1 hr measured after 8 hrs by Western blot method in absence of light; format: cell-based; conditions: l1210, 8 h
[27] = tested on: L1210; assay: Induction of necrosis in mouse L1210 cells at >= 1 uM preincubated for 1 hr followed by 1.05 J/cm2 UV-A irradiation; format: functional

logP [8]: 1.28 | Activity [9]: 21.1% | Activity [12]: 17.7% | Drug uptake [19]: Active | Activity [21]: 17.2% | Activity [24]: Active | Drug uptake [25]: Not Active
SMILES: CCCNC(=S)Nc1ccc2cc3ccc(NC(=S)NCCC)cc3nc2c1.Cl
Activity [1]: inactive | Activity [2]: inactive | Activity [3]: Active | Activity [4]: Non-toxic | Activity [5]: 43.2% | IC50 [6]: 7.2 µM | IC50 [7]: 0.48 µM | Activity [10]: Active | Activity [11]: Non-toxic | Activity [13]: Non-toxic | Activity [14]: Active | Activity [15]: 24% | Activity [16]: Active | Activity [17]: inactive | Activity [18]: inactive | Activity [20]: Non-toxic | Activity [22]: Active | IC50 at 48 h [23]: 43.5 µM | Activity [26]: Non-toxic | Activity [27]: 95%
